Holding throughout (assay): NCI anticancer screen, dose series, 48 h
Test [1] has as its system IGROV1 ovarian.
The test system of test [2] is HL-60(TB) leukemia.
Test [3] has as its system DMS 114 small cell lung.
Test [4] relates to EKVX NSCLC.
Test [5] concerns SK-MEL-5 melanoma.
Test [6] has as its system NCI-H23 lung.
Test [7] concerns COLO 205 colon.
Test [8] concerns K-562 leukemia.
Test [9] has as its system LXFL 529 NSCLC.
Test [10] concerns HS 578T breast.

The structures appear in SMILES notation.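 Exposure lasted 48 hours, with cells grown in 96-well plates and compounds tested at five concentrations. GI50: concentration for 50% inhibition of growth. TGI denotes the concentration required for complete inhibition of growth.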

Turning to `CCCCCCCCCCC(C)CCCCCCC(=O)O` (stereo unspecified), the TGI in test [1], in test [2], in test [3], in test [4], in [5] and in test [6] was more than 100 µM throughout. Besides, the TGI in test [7], in [8] and in test [9] was more than 100 µM in each case.

With `O=C(CC/C(CC(=O)c1ccc(Br)cc1)=N\O)Nc1ccc(Cl)c(Cl)c1`, the TGI in test [1], in test [2], in [3], in test [4], in test [5] and in test [6] was more than 100 µM throughout. In addition, the TGI in [7], in test [8] and in test [9] was more than 100 µM in each case.

`CCC[CH2][Sn]1([CH2]CCC)[O]CC(C)[O]1` (stereo unspecified): the GI50 in test [1] was 1.88 µM; in test [2] it was 0.661 µM; in [3], 1.11 µM; in test [4], 1.83 µM; in [5], 1.47 µM; in test [6] it was 0.749 µM. In addition, the GI50 in test [7] was 1.01 µM; in test [8], 0.367 µM; in test [9], 0.149 µM. Besides, the TGI was 3.94 µM in test [1]; 2.62 µM in [2]; 2.49 µM in test [3]; 4 µM in test [4]; 3.26 µM in test [5]; 2.08 µM in test [6]. For the same molecule, the TGI came out at 2.29 µM in test [7], 1.97 µM in test [8] and 1.35 µM in [9].

For `Brc1cc2c(cc1Br)CN(c1ccccc1)C2`, the TGI in [1], in [2], in [3], in test [4], in test [5] and in [6] was more than 100 µM throughout. In addition, the TGI in test [7], in [8] and in test [9] was more than 100 µM throughout.

Turning to `Cc1cccc2c(O)cc(=O)oc12`, the TGI in test [1], in [2], in test [3], in [4], in test [6] and in [8] was more than 100 µM each time. The molecule further showed a TGI in test [9] of more than 100 µM.

On to `O=C1/C(=C/c2ccc(Br)cc2)CCC/C1=C\c1ccc(Br)cc1`, for which the TGI was 38.7 µM in test [1]; 13.5 µM in test [2]; 38.7 µM in [3]; 62.5 µM in test [4]; 27.1 µM in test [5]; 21.2 µM in test [6]. For the same molecule, the figures for the TGI in test [7], in test [8] and in [9] were 28.4 µM, 21.2 µM and 14.7 µM, respectively.

Turning to `Cc1ccc(C(=O)CC2=Nc3nnc(CCCCCCCc4nnc5n4C(=O)C(CC(=O)c4ccc(C)cc4)=N5)n3C2=O)cc1`, the TGI in test [1], in [2], in test [3], in test [4], in [5] and in test [6] was more than 100 µM throughout. The TGI in test [7], in test [8] and in [9] was more than 100 µM throughout.

As to `NNC(=O)C(=O)N/N=C(\CCC(=O)Nc1ccc(Cl)cc1)Cc1nc2ccccc2s1`, the TGI in test [1] is 51.3 µM; in [2], more than 100 µM; in test [3], 54.8 µM; in [4], more than 100 µM; in test [5] it was 43.6 µM; in test [6] it was more than 100 µM. Further, the TGI in test [7], in [8] and in test [9] was more than 100 µM each time.

As for `CCN(CC)C(=S)[S][Bi]([S]C(=S)N(CC)CC)[S]C(=S)N(CC)CC`, the GI50 was 0.577 µM in test [1]; 0.127 µM in [2]; 0.0193 µM in [3]; 0.282 µM in test [4]; 0.634 µM in [5]; 0.211 µM in test [6]. In addition, the GI50 is 2.64 µM in test [10], less than 0.0208 µM in test [7], 0.123 µM in test [8] and 0.142 µM in test [9]. The TGI in test [1] amounted to 1.8 µM; in [2], 19.9 µM; in test [3], 0.0444 µM; in [4] it was 0.732 µM; in [5] it was 1.7 µM; in [6] it was 0.582 µM. The TGI in test [10] is 5.87 µM; in test [7], 0.131 µM; in test [8], more than 31.6 µM; in test [9] it was 0.275 µM.

For the molecule `C[C@]12CCC(=O)C=C1CC[C@@H]1C2CC[C@]2(C)c3nn(-c4ccccc4)nc3CC12` (stereo partly specified), the TGI in test [1], in test [2], in test [3], in test [4], in [5] and in test [6] was more than 100 µM each time. Besides, the TGI in test [7], in [8] and in [9] was more than 100 µM throughout.

`O=NN(CCCl)C(=O)NC1CCC(CC2CCC(NC(=O)N(CCCl)N=O)CC2)CC1` (stereo unspecified): the TGI was more than 67.8 µM in test [1]; more than 100 µM in [2]; more than 55.1 µM in test [3]; more than 100 µM in test [4]; more than 100 µM in test [5]; 99.6 µM in test [6]. Moreover, the figures for the TGI in test [7], in test [8] and in [9] were more than 88.1 µM, more than 100 µM and more than 100 µM, respectively.

Take `CCN(CC)CCNC(=O)c1cccc2nc3ccccc3nc12`: the TGI in test [1] is more than 100 µM; in test [3], 22.3 µM; in test [4] it was more than 65.4 µM; in test [5], more than 100 µM; in [6], 31.8 µM; in test [7] it was more than 41.4 µM. In addition, the TGI in [8] is more than 100 µM; in [9], more than 87.9 µM.

Consider `CC(C)=CC(=O)Cc1nc2ccc([N+](=O)[O-])cc2[nH]c1=O`, for which the TGI in test [1], in test [2], in test [3], in [4], in [5] and in test [6] was more than 100 µM in each case. Also, the TGI in [7], in test [8] and in test [9] was more than 100 µM each time.

On to `CC1(C)CC(N(C(=O)/C=C/c2ccc([N+](=O)[O-])o2)C2CCCCC2)CC(C)(C)N1`, for which the TGI in [1] worked out at 29.1 µM; in [2], 6.4 µM; in test [3], 6.87 µM; in test [4], 27 µM; in test [5], 21.8 µM; in [6] it was 21.3 µM. In addition, in [9], the TGI was 17.8 µM.

On to `CN(C)CC/C(=N\Nc1ccc(Cl)cc1Cl)c1ccccc1`, for which the TGI in test [1] came out at 22.8 µM; in [2] it was 21.6 µM; in test [3], 27.6 µM; in [4] it was 43.1 µM; in [5] it was 27.9 µM; in test [6], 31.6 µM. Besides, the TGI in test [7] was 29.2 µM; in [8], 33.4 µM; in test [9] it was 25.9 µM.

`Cn1cccc1/C=C/c1cc(Br)c(/C=C/c2cccn2C)cc1Br`: the TGI in [1] worked out at 53.2 µM; in test [2], 32.4 µM; in test [3] it was 35.2 µM; in test [4], 37.2 µM; in test [5], 32 µM; in [7] it was 55 µM. The TGI in [8] came to 43.9 µM; in test [9] it was 25 µM.

Consider `CCc1cccc(C)c1NC(=O)CC1C(=O)Nc2ccccc2S1(=O)=O` (stereo unspecified), for which the TGI in test [1] worked out at 35.2 µM; in [2], 40.2 µM; in test [3] it was 34.1 µM; in test [4], 41.9 µM; in [5], 44.4 µM; in [6], 41.1 µM. Besides, the TGI in test [8] was 14.7 µM; in test [9] it was 37 µM.

Values taken from PubChem BioAssay (NCI).
